Laboratory results as given in US20170334899A1, “AMINO-SUBSTITUTED ISOTHIAZOLES” (Bayer Pharma Aktiengesellschaft, priority 2014, published 2017).

Tests used:
Assay type in all cases: cell-based
[1] = tested on: human cervical tumor cell line HeLa (ATCC CCL-2); assay: SAC-Formation - Paclitaxel-Induced Assay; details: Homo sapiens, HeLa, 24 h, HeLa cells, paclitaxel 0.05 μM, test range 0.005 μM-20 μM, read-out: IC50 [mol/l] SAC-Formation - Paclitaxel-Induced Assay
Excerpt: (§1) The spindle assembly checkpoint assures the proper segregation of chromosomes during mitosis. Upon entry into mitosis, chromosomes begin to condensate which is accompanied by the phosphorylation of histone H3 on serine 10. Dephosphorylation of histone H3 on serine 10 begins in anaphase and ends at early telophase. Accordingly, phosphorylation of histone H3 on serine 10 can be utilized as a marker of cells in mitosis. Nocodazole is a microtubule destabilizing substance. Paclitaxel is a microtubule stabilizing compound. Thus, nocodazole as well as paclitaxel interfere with microtubule dynamics and mobilize the spindle assembly checkpoint. […] The mitotic breakthrough can be detected by the decrease of cells with phosphorylation of histone H3 on serine 10. This decline is used as a marker to determine the capability of compounds of the present invention to induce a mitotic breakthrough. The typical morphological alteration of nuclei with a prematurely completed mitosis after SAC-inhibition can be monitored via image analysis routines supporting those findings.
(§2) The nocodazole and paclitaxel variations were used to focus on compounds that are capable of inhibiting a SAC induced by both microtubule destabilization as well as microtubule stabilization. When SAC inducing agents and compounds are given simultaneously inhibitors that effectively block the SAC during formation or abrogation are identified. When cells are incubated with a SAC inducing agent and the SAC interfering compound is given after a defined time, inhibitors are identified that effectively block SAC abrogation.
Cultivated cells of the human cervical tumor cell line HeLa (ATCC CCL-2) were plated at a density of 1000 cells/well in a 1536-well microtiter plate in 2 μl PAA
(§3) Ham's F12 Medium supplemented with 1% (v/v) glutamine, 1% (v/v) penicillin, 1% (v/v) streptomycin and 10% (v/v) fetal calf serum. After incubation overnight at 37° C., 10 μl/well paclitaxel at a final concentration of 0.05 μM were added to cells. Test compounds solubilized in dimethyl sulfoxide (DMSO) were added at various concentrations (0 μM, as well as in the range of 0.005 μM -20 μM; the final concentration of the solvent DMSO was 0.5% (v/v)). Cells were incubated for 24 h at 37° C. in the presence of test compounds in combination with paclitaxel. Thereafter, cells were fixed in 4% (v/v) paraformaldehyde in phosphate buffered saline (PBS) at 4° C. overnight then permeabilized in 0.1% (v/v) Triton X™ 100 in PBS at room temperature for 20 min and blocked in 0.5% (v/v) bovine serum albumin (BSA) in PBS at room temperature for 15 min. After washing with PBS, 5 μl/well antibody solution (anti-phospho-histone H3 clone 3H10, FITC; Millipore, Cat#16-222; 1:1000 dilution) was added to cells, which were incubated for 2 h at room temperature. Afterwards, cells were washed with PBS and 5 μl/well solution of HOECHST 33342 dye (5 μg/ml) was added to cells and cells were incubated 15 min at room temperature in the dark. Cells were washed twice with PBS then covered with PBS and stored at 4° C. until analysis. Images were acquired with a PERKIN ELMER OPERA™ High-Content Analysis reader. Images were analyzed with image analysis software MetaXpress™ from Molecular devices utilizing the Mitotic Index application module. In this assay both labels HOECHST 33342 and phosphorylated Histone H3 on serine 10 were measured. HOECHST 33342 labels the DNA and is used to count the cell number. The staining of phosphorylated Histone H3 on serine 10 determines the number of mitotic cells. […] Otherwise cells were arrested at G2/M phase of the cell cycle progression. The raw assay data were further analyzed by four-parametric hill equation using Genedata's Assay Analyzer and Condoseo software.

[2] = tested on: human cervical tumor cell line HeLa (ATCC CCL-2); assay: SAC-Formation - Nocodazole-Induced Assay; details: Homo sapiens, HeLa, 24 h, HeLa cells, nocodazole 0.1 μg/ml together with test compound, decrease of mitotic cells (phospho-histone H3 Ser10)
Excerpt: as §1, §2
as §3, with “Cultivated cells of the human cervical tumor cell line HeLa (ATCC CCL-2) were plated at a density of 1000 cells/well in a 1536-well microtiter plate in 2 μl PAA Ham's” for “Ham's”, “nocodazole” for “paclitaxel”, “0.1 μg/ml” for “0.05 μM”, “μM-20” for “μM -20”, “nocodazole.” for “paclitaxel.”

HeLa = assay: Proliferation assay (crystal violet), HeLa; details: Homo sapiens, HeLa, 96 h, HeLa cells; 4 days incubation; crystal violet staining; read-out: IC50 inhibition of proliferation, HeLa
Experimental: Cultivated tumor cells (cells were ordered from ATCC, except HeLa-MaTu and HeLa-MaTu-ADR, which were ordered from EPO-GmbH, Berlin) were plated at a density of 1000 to 5000 cells/well, depending on the growth rate of the respective cell line, in a 96-well multititer plate in 200 μL of their respective growth medium supplemented 10% fetal calf serum. After 24 hours, the cells of one plate (zero-point plate) were stained with crystal violet (see below), while the medium of the other plates was replaced by fresh culture medium (200 μl), to which the test substances were added in various concentrations (0 μM, as well as in the range of 0.001-10 μM; the final concentration of the solvent dimethyl sulfoxide was 0.5%). The cells were incubated for 4 days in the presence of test substances. Cell proliferation was determined by staining the cells with crystal violet: the cells were fixed by adding 20 μl/measuring point of an 11% glutaric aldehyde solution for 15 minutes at room temperature. After three washing cycles of the fixed cells with water, the plates were dried at room temperature. The cells were stained by adding 100 μl/measuring point of a 0.1% crystal violet solution (pH 3.0). After three washing cycles of the stained cells with water, the plates were dried at room temperature. The dye was dissolved by adding 100 μl/measuring point of a 10% acetic acid solution. Absorbtion was determined by photometry at a wavelength of 595 nm. The change of cell number, in percent, was calculated by normalization of the measured values to the aborbtion values of the zero-point plate (=0%) and the absorbtion of the untreated (0 μm) cells (=100%). The IC50 values were determined by means of a 4 parameter fit.

IC50 [1] | IC50 [2] | IC50 (HeLa) | SMILES
10 µM | 2.2 µM | 10 µM | COc1cc(NC(=O)c2cccc(NC(=O)c3c(C)nsc3Nc3cnc4ccccc4n3)c2)cc(OC)c1OC [Example 77, 3-Methyl-5-(quinoxalin-2-ylamino)-N-{3-[(3,4,5-trimethoxy-phenyl)carbamoyl]phenyl}-1,2-thiazole-4-carboxamide]
2 µM | 0.47 µM | 7 µM | Cc1nsc(Nc2cnc3ccccc3n2)c1C(=O)Nc1cccc(C(=O)N2CCN(c3ccccc3F)CC2)c1 [Example 78, N-(3-{[4-(2-Fluorophenyl)piperazin-1-yl]carbonyl}phenyl)-3-methyl-5-(quinoxalin-2-ylamino)-1,2-thiazole-4-carboxamide]
3.7 µM | 0.9 µM | 10 µM | Cc1nsc(Nc2cnc3ccccc3n2)c1C(=O)Nc1cccc(C(=O)N2CCN(c3cnccn3)CC2)c1 [Example 79, 3-Methyl-N-(3-{[4-(pyrazin-2-yl)piperazin-1-yl]carbonyl}-phenyl)-5-(quinoxalin-2-ylamino)-1,2-thiazole-4-carboxamide]
3.5 µM | 1.8 µM | 8.3 µM | Cc1nsc(Nc2cnc3ccccc3n2)c1C(=O)Nc1cccc(C(=O)N2CCN(c3ccccc3C#N)CC2)c1 [Example 80, N-(3-{[4-(2-Cyanophenyl)piperazin-1-yl]carbonyl}phenyl)-3-methyl-5-(quinoxalin-2-ylamino)-1,2-thiazole-4-carboxamide]
11 µM | 10 µM | 10 µM | Cc1nsc(Nc2cnc3ccccc3n2)c1C(=O)Nc1cccc(C(=O)NCCCN2CCCC2)c1 [Example 81, 3-Methyl-N-(3-{[3-(pyrrolidin-1-yl)propyl]carbamoyl}-phenyl)-5-(quinoxalin-2-ylamino)-1,2-thiazole-4-carboxamide]
14 µM | 3.7 µM | 10 µM | Cc1nsc(Nc2cnc3ccccc3n2)c1C(=O)Nc1cccc(C(=O)N(C)CCc2ccncc2)c1 [Example 82, 3-Methyl-N-(3-{methyl[2-(pyridin-4-yl)ethyl]carbamoyl}-phenyl)-5-(quinoxalin-2-ylamino)-1,2-thiazole-4-carboxamide]
0.94 µM | 0.05 µM | 10 µM | Cc1nsc(Nc2cnc3ccccc3n2)c1C(=O)Nc1cccc(C(=O)N2CCCN(C)CC2)c1 [Example 83, 3-Methyl-N-{3-[(4-methyl-1,4-diazepan-1-yl)carbonyl]-phenyl}-5-(quinoxalin-2-ylamino)-1,2-thiazole-4-carboxamide]

Continued, molecule first:

SMILES | IC50 [1] | IC50 [2] | IC50 (HeLa)
Cc1nsc(Nc2cnc3ccccc3n2)c1C(=O)Nc1cccc(C(=O)NCCN2CCOCC2)c1 [Example 71, 3-Methyl-N-(3-{[2-(morpholin-4-yl)ethyl]carbamoyl}-phenyl)-5-(quinoxalin-2-ylamino)-1,2-thiazole-4-carboxamide] | 20 µM | 1.4 µM | 10 µM
Cc1nsc(Nc2cnc3ccccc3n2)c1C(=O)Nc1cccc(C(=O)NCCN2CCCC2)c1 [Example 72, 3-Methyl-N-(3-{[2-(pyrrolidin-1-yl)ethyl]carbamoyl}phenyl)-5-(quinoxalin-2-ylamino)-1,2-thiazole-4-carboxamide] | 10 µM | 0.052 µM | 10 µM
C#CCNC(=O)c1cccc(NC(=O)c2c(C)nsc2Nc2cnc3ccccc3n2)c1 [Example 73, 3-Methyl-N-[3-(prop-2-yn-1-ylcarbamoyl)phenyl]-5-(quinoxalin-2-ylamino)-1,2-thiazole-4-carboxamide] | 5.3 µM | 0.25 µM | 9.4 µM
COC(=O)CCNC(=O)c1cccc(NC(=O)c2c(C)nsc2Nc2cnc3ccccc3n2)c1 [Example 74, Methyl N-[3-({[3-methyl-5-(quinoxalin-2-ylamino)-1,2-thiazol-4-yl]carbonyl}amino)benzoyl]-β-alaninate] | 5.3 µM | 1.3 µM | 10 µM
Cc1nsc(Nc2cnc3ccccc3n2)c1C(=O)Nc1cccc(C(=O)NCCN(C)C)c1 [Example 75, N-(3-{[2-(dimethylamino)ethyl]carbamoyl}phenyl)-3-methyl-5-(quinoxalin-2-ylamino)-1,2-thiazole-4-carboxamide] | 10 µM | 0.015 µM | 10 µM
COC(=O)CN(C)C(=O)c1cccc(NC(=O)c2c(C)nsc2Nc2cnc3ccccc3n2)c1 [Example 76, Methyl N-methyl-N-[3-({[3-methyl-5-(quinoxalin-2-ylamino)-1,2-thiazol-4-yl]carbonyl}amino)benzoyl]-glycinate] | 18 µM | 5 µM | 10 µM
